Test system: plasma coagulation time (PT)
Test: Prothrombin time (PT) in STA NeoCl+ on treated (defrosted, pooled, excipient-supplemented, filtered) plasma
Format: biochemical
Description: The plasma bags were defrosted at 37° C.±2° C. in a defroster; once defrosted, the plasma was stabilized at 37° C.±2° C. for 30 minutes.
The bags were then pooled in a stainless steel container and the plasma was then homogenized using a magnetic stirrer.
The lyophilization excipients (lactose, saccharose, HEPES buffer) were added, stirring until dissolution was complete.
A sample was taken to measure the pH, the conductivity and to determine the PT on a STA Neo Cl+ apparatus using STA-R (Diagnostica STAGO).
The plasma was filtered on a CRK1 cartridge (Millipore) and a sample was taken to determine the PT in the NeoCl+ after filtration. […]
A sample of each point was tested in the STA NeoCl+; a range resulting from the addition of different concentrations of F VIIa was produced for each level as a function of the coagulation times obtained.
For each point, the concentration of added factor VIIa was determined as a function of the times on a reference graph obtained for fresh plasmas.
The F VIIa was then added, and homogenized and a sample of each point was taken in order to measure the pH, the conductivity and to determine the PT in the STA NeoCl+ using STA-R to verify that the desired times were indeed obtained, then each product was distributed and lyophilized.
In the table below, a range for procoagulant factor F VIIa has been produced for a range of concentrations of rivaroxaban.

O=C(NC[C@H]1CN(c2ccc(N3CCOCC3=O)cc2)C(=O)O1)c1ccc(Cl)s1 [rivaroxaban]
PT divergence of treated plasma with respect to fresh plasma (500 ng/mL of rivaroxaban, FIG. 1): 13 s
Time in NeoCl+ (rivaroxaban 25 ng/mL, FVIIa 0 IU/mL): 14.4 s
Time in NeoCl+ (rivaroxaban 25 ng/mL, FVIIa 0.1 IU/mL): 13.7 s
Time in NeoCl+ (rivaroxaban 50 ng/mL, FVIIa 0 IU/mL): 15.3 s
Time in NeoCl+ (rivaroxaban 50 ng/mL, FVIIa 0.2 IU/mL): 14.3 s
Time in NeoCl+ (rivaroxaban 50 ng/mL, FVIIa 0.3 IU/mL): 14.6 s
Time in NeoCl+ (rivaroxaban 50 ng/mL, FVIIa 0.4 IU/mL): 14.6 s
Time in NeoCl+ (rivaroxaban 200 ng/mL, FVIIa 0 IU/mL): 21.2 s
Time in NeoCl+ (rivaroxaban 200 ng/mL, FVIIa 0.1 IU/mL): 19.8 s
Time in NeoCl+ (rivaroxaban 200 ng/mL, FVIIa 0.2 IU/mL): 19 s
Time in NeoCl+ (rivaroxaban 250 ng/mL, FVIIa 0 IU/mL): 23.5 s
Time in NeoCl+ (rivaroxaban 250 ng/mL, FVIIa 0.2 IU/mL): 21 s
Time in NeoCl+ (rivaroxaban 250 ng/mL, FVIIa 0.3 IU/mL): 20.3 s
Time in NeoCl+ (rivaroxaban 250 ng/mL, FVIIa 0.4 IU/mL): 19.9 s
Time in NeoCl+ (rivaroxaban 500 ng/mL, FVIIa 0 IU/mL): 32 s
Time in NeoCl+ (rivaroxaban 500 ng/mL, FVIIa 0.1 IU/mL): 29.9 s
Time in NeoCl+ (rivaroxaban 500 ng/mL, FVIIa 0.2 IU/mL): 28.4 s
Time in NeoCl+ (rivaroxaban 500 ng/mL, FVIIa 0.3 IU/mL): 27.5 s
Time in NeoCl+ (rivaroxaban 500 ng/mL, FVIIa 0.4 IU/mL): 26.8 s
Time in NeoCl+ (rivaroxaban 800 ng/mL, FVIIa 0 IU/mL): 43.5 s
Time in NeoCl+ (rivaroxaban 800 ng/mL, FVIIa 0.2 IU/mL): 38.3 s
Time in NeoCl+ (rivaroxaban 800 ng/mL, FVIIa 0.3 IU/mL): 36.6 s

From patent publication US20110177541A1, “METHOD FOR ADJUSTING THE COAGULATION TIME IN CALIBRATOR OR CONTROL PLASMAS” (DIAGNOSTICA STAGO, priority 2010, published 2011)
